Measurements as given in patent US20170183318A1, “AMIDE COMPOUNDS, METHODS FOR PREPARATION, AND USE THEREOF AS AGENTS FOR THE TREATMENT AND PREVENTION OF DISEASES CAUSED BY RNA- AND/OR DNA-CONTAINING VIRUSES, AND CONCOMITANT DISEASES” (OBSCHESTVO S OGRANICHENNOI OTVETSTVENNOSTIYU …, priority 2014, published 2017).
Like-named read-outs stand apart in the source and are kept apart here. Starred links: 1 amine or outer side, 2 acyl side, 3 side chain; linkers in the order of their positions; H or OH if unused. Residues, ends and D or L forms follow the SMILES beside them. Glutaryl = O=C(CCCC(=O)[*:2])[*:1]

Experiments:
[1] = test system: human virus hRSV; assay: Antiviral activity against mouse-adapted RS virus (body weight; viral titer in lungs titrated in Hep-2 cells); format: in vivo, mice; conditions: for Body weight of the mice on day 5 after infection with hRSV (M ± SD) / Body weight of the mice on day 7 after infection with hRSV (M ± SD) / hRSV in the lungs of mice, Day 5, lg / hRSV in the lungs of mice, Day 7, lg: compounds 30 mg/kg, Ribavirin 40 mg/kg; for Body weight of the mice on day 5 after infection with hRSV (M ± SD) / Body weight of the mice on day 7 after infection with hRSV (M ± SD): orally once daily for 5 days, n = 6; for hRSV in the lungs of mice, Day 5, lg / hRSV in the lungs of mice, Day 7, lg: 10% lung suspension titrated in Hep-2 cells (TCID); for log reduction at 30 mg/kg: human respiratory syncytial virus, HEp-2, po
Procedure: Antiviral effectiveness of the chemical compounds against RSV in an experimental murine model in vivo was determined for human virus hRSV that was previously adapted to the growth in mouse lungs. The animals were infected with the virus at a dose of 0.5 log TCID50 intranasally under brief ether anesthesia in a volume of 0.05 ml/mouse. The studied compounds were administered orally once daily for 5 days according to the treatment regimen at a dose of 30 mg/kg. The first administration was made 24 hours after infection. Normal saline solution was administered to mice as placebo. Intact animals served as a negative control and were hold in a separate room under the same conditions as the experimental animals. Each experimental group comprised 12 animals.
The antiviral activity of the studied compounds was determined by the efficiency in the prevention of weight loss and by suppression of the reproduction of hRSV in the mouse lungs by measuring a viral titer in the experimental groups relative to the control on days 5 and 7 after infection.
In addition, the therapeutic action of the compounds of general formula I was determined by their ability to suppress the reproduction of hRSV in the mouse lungs on days 5 and 7 after infection. The viral titer was determined by the titration of a 10% lung suspension in Hep-2 cell culture. The result was registered 2 days after the incubation at 37° C. by TCID.

[2] = test system: Coxsackie A2 virus (strain HCXV A2); assay: Antiviral activity against Coxsackie virus in vivo (mortality and life expectancy of infected mice); conditions: for inhibition in vivo at 30 mg/kg / mortality at 30 mg/kg: Mus musculus, po; for inhibition in vivo at 30 mg/kg: 168 h, read-out: Protective index (%); for mortality at 30 mg/kg: 360 h, read-out: Total mortality, %; for Average life expectancy (days), Compared with control: difference vs virus control; for Average life expectancy (days), Relative: mice infected with 10LD50 HCXV A2
Procedure: In the study a trypsin-dependent strain HCXV A2 was used, previously adapted and causing death in mice from Coxsackie virus infection.
The experiment was carried out in white mice weighing 6 to 7 g. The animals were infected intramuscularly with a dose of 0.1 mL/mouse. The used infectious dose causing mortality in mice was 10LD50.
The ability of compounds to provide a therapeutic effect was determined by the mortality rate of HCXV A2 virus-infected mice in the experimental group relative to the group of untreated animals.
The studied compounds and placebo were administered orally according to the treatment regimen. Normal saline solution was administered to mice as placebo. Intact animals served as a negative control and were hold in a separate room under the same conditions as the experimental animals.
For the experiment, groups were formed with 14-15 animals each. Compounds were administered at a dose of 30 mg/kg of body weight. The studied compounds were administered orally once daily for 7 days (first administration was made 24 hours after infection). The animals were monitored for 15 days during which the animals were weighed and the mortality rate was registered every day.

[3] = 30 mg/kg orally once daily for 7 days, vs virus control
[4] = 30 mg/kg orally once daily for 7 days
[5] = 120 h, read-out: Suppression of the reproduction of hRSV in the lungs of mice, Day 5, Δlg
[6] = 168 h, read-out: Suppression of the reproduction of hRSV in the lungs of mice, Day 7, Δlg

| SMILES | Body weight of the mice on day 5 after infection with hRSV (M ± SD) [1] | Body weight of the mice on day 7 after infection with hRSV (M ± SD) [1] | inhibition in vivo at 30 mg/kg [2, 3] [%] | mortality at 30 mg/kg [2] [%] | Average life expectancy (days), Compared with control [2, 4] | Average life expectancy (days), Relative [2, 4] [days] | inhibition in vivo at 30 mg/kg [2] [%] | hRSV in the lungs of mice, Day 5, lg [1] [lg] | hRSV in the lungs of mice, Day 7, lg [1] [lg] | log reduction at 30 mg/kg [1, 5] | log reduction at 30 mg/kg [1, 6] |
| --- | --- | --- | --- | --- | --- | --- | --- | --- | --- | --- | --- |
| O=C(O)CCCC(=O)NCCC1CNCCN1 (centres unmarked) [Compound 8] | 15.18 ± 0.18 | 17.13 ± 0.27 | – | – | – | – | – | – | – | – | – |
| O=C(O)CCCC(=O)NCCC1COCCN1 (centres unmarked) [Compound 10] | 16.18 ± 0.29 | 16.53 ± 0.20 | – | – | – | – | – | – | – | – | – |
| O=C(O)CCCC(=O)NCCc1ncccn1 [Compound 12] | – | – | 45 | 40 | +14.2 days | 24.9 | – | – | – | – | – |
| O=C(O)CCCC(=O)NCCc1cccnn1 [Compound 13] | – | – | 36 | 46.7 | +8.3 days | 19.0 | – | – | – | – | – |
| O=C(O)CCCC(=O)NCCc1ccc[nH]1 [Compound 14] | – | – | – | 50 | +10.4 days | 21.4 | 36 | – | – | – | – |
| O=C(O)CCCC(=O)NCCc1cnon1 [Compound 29] | – | – | 50 | 35.7 | +13.7 days | 26.7 | – | – | – | – | – |
| CC(CCC(=O)O)C(=O)NCCc1c[nH]cn1 (centres unmarked) [Compound 30] | – | – | 18 | 60 | +2.4 days | 13.1 | – | – | – | – | – |
| O=C(O)CCCC(=O)NCCCc1ccco1 [Compound 32] | – | – | 33 | 42.9 | +10.0 days | 22.2 | – | – | – | – | – |
| O=C(O)CCCC(=O)NCCc1ccc(Cl)nc1 [Compound 36] | – | – | 27 | 53.3 | +6.0 days | 16.7 | – | – | – | – | – |
| O=C(O)CCCC(=O)OCCc1cnc[nH]1 [Compound 71] | – | – | 44 | 35.7 | +16.4 days | 28.6 | – | – | – | – | – |
| CC(C)(CCC(=O)NC(Cc1c[nH]cn1)C(=O)O)C(=O)O (centres unmarked) [Compound 75] | – | – | 50 | 35.7 | +14.3 days | 27.3 | – | – | – | – | – |
| CC(C)C(NC(=O)C(Cc1cnc[nH]1)NC(=O)CCCC(=O)O)C(N)=O (stereo not drawn) [Compound 90] (Glutaryl-His-Val-NH2; configuration not given here) | – | – | 50 | 35.7 | +15.1 days | 25.9 | – | – | – | – | – |
| CN(CCc1cnc[nH]1)C(=O)CCCC(=O)O [Compound 117] | 16.07 ± 0.12 | 16.48 ± 0.28 | – | – | – | – | – | 3.00 ± 0.41 | 1.46 ± 0.24 | 1.6 ± 0.41 | 2.22 ± 0.34 |
| O=C(O)CCCC(=O)NCCc1cncs1 [Compound 122] | 16.93 ± 0.32 | 16.37 ± 0.21 | – | – | – | – | – | 3.04 ± 0.44 | 1.75 ± 0.41 | 1.56 ± 0.44 | 1.88 ± 0.47 |
